These results are taken from patent US20220409573A1, “Hippocampus Regeneration And Memory Recovery” (INNOBIOSCIENCE, LLC, priority 2021, published 2022).

The structures appear in SMILES notation.

For series [1], the system named is Wnt/β-catenin pathway in hippocampal neurons. The experiment in a line: Wnt/β-catenin pathway activation in cultured hippocampal neurons (western blot, immunofluorescence). The format is cell-based, rat. The protocol: Primary culture of rat hippocampal neurons. Rat hippocampal cultures were prepared as previously described (Arrazola et al, 2009). On day 3 of culture, hippocampal cells were treated with […] 1-b-Darabinofuranosylcytosine (AraC) during 24 h to reduce the number of proliferating non-neuronal cells. […] PCR-ARRAY. RNA from hippocampal neurons was extracted using Trizol. Quantification and purity of RNA preparations were checked by absorbance using Nanodrop ND-2000. Only preparations with a 260/280 nm ratio≥1.8, a 260/230 nm ratio ≥1,7 and no sign of RNA degradations, verified by agarose gel electrophoresis with Gel Red TM were used. Genomic DNA was degraded. Using RT2First-Strand cDNA Synthesis kit (SuperArray), 1 μg total RNA was reverse transcribed and then real-time PCR was performed by adding cDNA directly to PCR Master Mix, containing SYBR Green and ROX. The mixtures were then aliquoted into a 96-well PCR array plates, which profiles the expression of 84 Wnt target genes from rat. The PCR was run on ABI StepOnePlus, with 1 cycle of 10 min at 95° C. followed by 40 cycles of 15 s at 95° C. and 1 min at 60° C. Cycle threshold (Ct) values were calculated for all the genes present on the array (Schmittgen & Livak, 2008).
Treatment of neuronal cultures. Primary hippocampal cultures of neurons 14 DIV were washed twice in neurobasal medium and maintained for 1 hour.
Nuclear and cytoplasmatic extraction. Following a time-course treatment, neurons were washed with cold PBS and harvested in 600 μL of cold homogenization buffer (10 mM HEPES pH 7,9; 1,5 mM MgCl2; 10 mM KCl; 1 mM DTT). The cells were disrupted by 20 passed, back and forth, through a syringe of 1 mL. Lysates were centrifuged for 6 minutes at 700 g at 4° C. and the supernatant was removed. The precipitate was washed in 100 μL of buffer (20 mM HEPES pH=7,9; 420 mM NaCl; 1,5 mM MgCl2; 0,2 mM EDTA; 1 mM DTT; 25% glicerol) and centrifuged again to generate nuclear fraction. Cytosolic fractions were generated from the supernatantat 100.000 g for 1 h at 4° C. Both buffers were supplemented with protease inhibitors and serine-phosphatase. Nuclear and cytosolic fractions were subsequently subjected to western blotting.
Immunoblotting. The samples were dissected on ice and immediately frozen in liquid nitrogen or processed has previously detailed (Inestrosa et al, 2011). Briefly, tissues were homogenized in RIPA buffer (10 mM Tris-Cl, pH 7.4, EDTA 5 mM, 1% NP-40, 1% sodium deoxycholate, and 1% SDS) supplemented with a protease inhibitor mixture (1 mM PMSF, 2 μg/mL aprotinin, 1 μg/mL pepstatin and 10 μg/mL benzamidine) and phosphatase inhibitors (25 mMNaF, 100 mM Na3VO4, 1 mM EDTA and 30 μM Na4P207) using a Potter homogenizator and then passed sequentially through different caliber syringes. Protein samples were centrifuged at 14000 rpm at 4° C. twice for 15 min. Protein concentration was determined using the BCA Protein Assay Kit (Pierce). Samples were resolved by […] 10% SDS-PAGE and transferred to a PVDF membrane. The reactions were followed by incubation with anti-mouse, anti-goat or anti-rabbit IgG peroxidase conjugated (Pierce, Rockford, Ill.) and developed using an ECL kit (Western Lightning Plus ECL, PerkinElmer).
Immunofluorescence. Hippocampal neurons were seeded onto poly-L-lysine-coated cover slips in 24-well culture plates at a density of 5×10^4 cellsper well, as described previously (Arrazola et al, 2009; Chacon et al, 2008). A mouse monoclonal anti-b-catenin was used. Cells were extensively washed with PBS and then incubated with Alexa 488-conjugated anti-mouse IgG for 1 h at room temperature. Cells were mounted in mounting medium and analyzed in a Carl-Zeiss Confocal Laser Microscope.
In general terms: A western blot detects proteins with antibodies after separation by electrophoresis.

Series [2] is described as follows: Side effects in treated animals. Particulars: in vivo.
Setting [3] is: different concentrations for 6 h, 14 DIV neurons.

On to `C=C1CC[C@@H]2C(C)(CO)[C@H](O)CC[C@@]2(C)C1C/C=C1/C(=O)OC[C@H]1O` (stereo in doubt) [ANDRO, 3-(2-(Decahydro-6-hydroxy-5-(hydroxymethyl)-5,8a-dimethyl-2-methylenenaphthyl)ethylidene)dihydro-4-hydroxyfuran-2(3H)-one], for which, in series [1] (5 μM for 6 h, 14 DIV neurons), the “β-catenin levels by immunofluorescence” value is listed as “increased β-catenin levels”. Besides, the “time of peak accumulation of cytoplasmic and nuclear β-catenin” value in series [1] (ANDRO 10 μM time course) turned out to be 9 h. Also, the “time of maximum increase of the inhibited form of GSK-3β” value in series [1] (ANDRO 10 μM time course, cytoplasmic fraction) is 6 h. Moreover, in series [1] (setting [3]), the “accumulation of β-catenin (western blot)” value was “accumulation of β-catenin in a concentration-dependent manner”, the “active form of GSK-3β (phosphor-Tyr-216)” value is recorded as “decrease in the active form” and the “inhibited form of GSK-3β (phospho-Ser-9)” value is reported as “increase in the inhibited form of the enzyme”. In series [2], the “side effects in animals” value was “seems not to cause side effects in animals”.
